Data set [1] concerns the target T1, m-calpain (Homo sapiens, UniProt P17655).
T1 sequence (P17655 1-700): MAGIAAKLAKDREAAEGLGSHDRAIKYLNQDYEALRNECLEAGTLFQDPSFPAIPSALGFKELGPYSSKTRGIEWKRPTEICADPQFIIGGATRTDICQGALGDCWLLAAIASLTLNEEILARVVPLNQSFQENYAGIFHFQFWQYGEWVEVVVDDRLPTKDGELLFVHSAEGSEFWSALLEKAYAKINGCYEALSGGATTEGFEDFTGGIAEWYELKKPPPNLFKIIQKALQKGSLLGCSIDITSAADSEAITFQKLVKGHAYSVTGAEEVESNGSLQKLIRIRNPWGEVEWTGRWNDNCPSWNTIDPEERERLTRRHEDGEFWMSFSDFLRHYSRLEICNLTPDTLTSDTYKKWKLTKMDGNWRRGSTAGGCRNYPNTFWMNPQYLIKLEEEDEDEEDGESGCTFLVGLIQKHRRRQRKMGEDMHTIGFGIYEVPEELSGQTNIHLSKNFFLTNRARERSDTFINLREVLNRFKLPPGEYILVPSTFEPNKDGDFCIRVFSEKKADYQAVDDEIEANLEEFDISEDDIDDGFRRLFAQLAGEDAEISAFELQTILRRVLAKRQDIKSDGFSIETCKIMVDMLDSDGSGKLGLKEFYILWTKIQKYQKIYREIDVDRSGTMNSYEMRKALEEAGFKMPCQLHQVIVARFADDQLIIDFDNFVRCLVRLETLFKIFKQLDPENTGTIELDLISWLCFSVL
T1 sequence (P04632 1-268 partner): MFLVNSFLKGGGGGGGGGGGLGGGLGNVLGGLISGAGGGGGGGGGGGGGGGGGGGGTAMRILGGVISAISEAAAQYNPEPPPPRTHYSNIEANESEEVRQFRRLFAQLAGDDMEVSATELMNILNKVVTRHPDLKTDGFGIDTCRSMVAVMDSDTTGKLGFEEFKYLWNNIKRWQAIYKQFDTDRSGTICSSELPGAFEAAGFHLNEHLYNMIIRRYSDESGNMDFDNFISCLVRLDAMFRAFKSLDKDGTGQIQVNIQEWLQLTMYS
In words: m-calpain inhibition, fluorescence-based assay with BODIPY-casein substrate. The data set is classed as biochemical. Here is the method:
The peptidic alcohol 3 and aldehyde 6 were assayed against m-calpain using a BODIPY-casein substrate in the fluorescence-based assay procedure of V. F. Thompson, S. Saldana, J. Cong and D. E. Goll, Anal. Biochem. 2000, 279, 170.
The results of the enzyme inhibition assay for 3 and 6 are graphically represented in FIGS. 1 and 2, respectively.

A short description of data set [2]: Ovine cornea penetration, modified Ussing chamber and LCMS. The settings on record: adult ovine cornea, Ussing chamber, 37° C., 3 hours, LCMS. The data set is classed as in vitro ADME. As to the method: The peptidic aldehyde 6 was assayed for ovine cornea penetration using a modified Ussing chamber and LCMS based on the procedure of Youn Bok Chung, Kun Han and Vincent H. L. Lee, Pharmaceutical Research, 2000, 15, 1882. Compound 6 (3.5 mg) was dissolved in buffer A (5 mL) and added to the epithelial side a modified Ussing chamber with a pre-mounted adult ovine cornea. Buffer B (5 mL) was added to the endothelial side of the chamber and the whole chamber was incubated 37° C. for 3 hours, 5% CO2. Samples were taken from both sides of the chamber at time=0 and 180 minutes. The samples were analysed for compound 6 using LCMS.

Data set [3] in a line: Detection of 6 in ovine body parts by LCMS after ointment application to one eye. The data set is classed as in vivo, lamb. The following applies: for Compound 6 detected: 1% ointment 50 mg three times in one day. As to the method: (§1) An ointment (50 mg) comprising 1% of the peptidic aldehyde 6 was applied to one eye of a lamb, three times in one day.
Various body parts were assayed for trace amounts of 6 by LCMS using a method similar to that described by A. Maltese and C. Bucolo, Biomedical Chromatography 2000, 16, 274. A rapid high-performance liquid chromatographic method using a C18 reversed-phase column with UV detection at 254 nm was used for the analysis of 6 in ovine samples. A water solution containing 2% ZnSO4.7H2O was used to deproteinise the samples. The mobile phase consisted of CH3CN and H2O containing 0.05% TFA.

A short description of data set [4]: In vivo eye irritation in a lamb after ointment application. The following applies: 1% ointment (50 mg) applied to one eye of a lamb, three times in one day. Here is the method:
as §1

Data set [5] deals with cataracts. In words: In vivo cataract progression in lambs, ointment on the eye. The following applies: 1% ointment (25 mg) twice daily, 24 lambs. The arrangement: species or system lamb. Here is the method:
An ointment (25 mg) comprising 1% of the peptidic aldehyde 6 was applied twice daily to the left eye of 24 lambs for three months starting when they were two to three months old. The progression of cataracts was determined by a veterinary opthalmologist with a slit-lamp microscope.

Data set [6] has as its system adult ovine lens. In words: In vitro lens culture assay, calcium induced cataract. The data set is classed as cell-based. The following applies: ovine lens preincubated with 0.8 μM for 2 hours, then 5 mM calcium chloride for 20 hours. As to the method:
The ability of the peptidic aldehyde 6 to prevent the formation of a calcium induced cataract in adult ovine lens was assayed using the procedure of J. Sanderson, J. M. Marciantonio and G. A. Duncan, Invest. Opth. Vis. Sci. 2000, 41, 2255. Three pairs of lenses were tested. One lens from each pair was preincubated with [0.8 μM] 6 for 2 hours while the other was incubated in EMEM-culture media at 35° C., 5% CO2. Then 5 mM calcium chloride was added onto both the inhibitor treated lens and the other lens, and both lenses were then incubated for 20 hours. One pair of lenses was photographed when the assay had been completed.

`CC(C)C[C@@H](CO)NC(=O)[C@@H](NC(=O)c1ccc(C=O)[nH]1)C(C)C` [Compound 3, 5-Formyl-1H-pyrrole-2-carboxylic acid [(S)-1-((S)-1-hydroxymethyl-3-methyl-butylcarbamoyl)-2-methyl-propyl]-amide] registered a half-maximal inhibitory concentration (IC50) in data set [1] of 0.97 µM.

Turning to `CC(C)C[C@@H](CO)NC(=O)[C@@H](NC(=O)c1ccc(C=O)o1)C(C)C` [Compound 7, 5-Formyl-furan-2-carboxylic acid [(S)-1-((S)-1-hydroxymethyl-3-methyl-butylcarbamoyl)-2-methyl-propyl]-amide], the melting point lay within 46 to 48 °C.

In turn, `CC(C)C[C@@H](CO)NC(=O)[C@@H](NC(=O)c1ccc(C=O)o1)C(C)C` [Compound 4, 5-Formyl-furan-2-carboxylic acid [(S)-1-((S)-1-hydroxymethyl-3-methyl-butylcarbamoyl)-2-methyl-propyl]-amide] displayed an IC50 in data set [1] of 120 µM.

On to `CC(C)C[C@@H](CO)NC(=O)[C@@H](NC(=O)c1ccc(C=O)s1)C(C)C` [Compound 5, 5-Formyl-thiophene-2-carboxylic acid [(S)-1-((S)-1-hydroxymethyl-3-methyl-butylcarbamoyl)-2-methyl-propyl]-amide], for which the midpoint of inhibition in data set [1], the IC50, lay at 30.4 µM.

On to `CC(C)C[C@@H](C=O)NC(=O)[C@@H](NC(=O)c1ccc(C=O)[nH]1)C(C)C` [Compound 6, 5-Formyl-1H-pyrrole-2-carboxylic acid [(S)-1-((S)-1-formyl-3-methyl-butylcarbamoyl)-2-methyl-propyl]-amide], for which, in data set [2], the Cornea penetration entry is “yes”. Also, the Amount detected in data set [3] (Aqueous humour (treated eye)) is 8 ng; in data set [3] (Lens (treated eye)) it was 6 ng; in data set [3] (Vitreous humour (treated eye)) it was 4 ng. The “Compound 6 detected” value in data set [3] (Aqueous humour (treated eye)) is “yes”; in data set [3] (Kidney), “no”; in data set [3] (Lens (treated eye)) it was “yes”; in data set [3] (Liver) it was “no”; in data set [3] (Plasma), “no”; in data set [3] (Vitreous humour (treated eye)) it was “yes”. Besides, in data set [4], the Eye irritation entry is “No sign of irritation”. The “Cataract progression, treated left eye” value in data set [5] (first month following treatment (p<0.05)) is “significantly slower cataract progression”. In addition, in data set [5] (following two months), the “Cataract progression, treated versus untreated eyes” value is listed as “no significant differences”. For the same compound, the “Inhibition of cataract formation” value in data set [6] was “yes”. In data set [1], this compound registered an IC50 of 0.03 µM.

The record behind these values is patent publication US20070293560A1, “Compounds and compositions” (priority 2006, published 2007).
